Patent US20110244049A1, “COMPOSITIONS COMPRISING 4-(2-(5-BROMO-4-(1-CYCLOPROPYLNAPHTHALEN-4-YL)-4H-1,2,4-TRIAZOL-3-YLTHIO)ACETAMIDO)-3-CHLOROBENZOIC ACID AND PHARMACEUTICALLY ACCEPTABLE SALTS THEREOF, AND METHODS FOR PREPARING AND USING SAME” (ARDEA BIOSCIENCES INC., priority 2008, published 2011)

System: serum uric acid
Assay: Serum uric acid levels on day 9 of the study (Example 6)
Format: in vivo, human
Experimental: Human clinical studies using the compositions described in examples 2A, 3A, 4A, 5A were conducted as described: A multi-center, double-blind, placebo-controlled study in 48 treatment-naïve HIV-1-infected subjects, randomized 3:1 (treatment:placebo). Patients were male, 18-65 years with chronic HIV infection, but no history of AIDS-defining illness. Patients were antiretroviral treatment naïve or <14 days prior therapy and had no pre-existing RTI or PI drug resistance and no co-infection with acute HAV, chronic HBV, active HCV. Patient CD4+ cell count was ≧50 cells/mm^3 for 2 cohorts, then ≧200 cells/mm^3 or ≧350 cells/mm^3 depending on site.
The compositions were administered over a 7-day treatment period plus one morning dose for PK purposes on day 8. (It should be noted that in some instances multiple doses of the same composition were administered, in order to achieve the required total dose of compound 1; i.e.in order to achieve a dose of 400 mg compound 1, a patient may have taken four 100 mg compositions or two 200 mg compositions, depending on the dosage form.) Four sequential dose cohorts were administered as follows:
Serum uric acid levels were recorded on day 9 of the study, and are shown in the table below and graphically in FIG. 8.

O=C(CSc1nnc(Br)n1-c1ccc(C2CC2)c2ccccc12)Nc1ccc(C(=O)O)cc1Cl [Compound 1, 4-(2-(5-bromo-4-(1-cyclopropylnaphthalen-4-yl)-4H-1,2,4-triazol-3-ylthio)acetamido)-3-chlorobenzoic acid]
Mean serum UA reduction (400 mg BID): −30% | Mean serum UA reduction (600 mg QD): −21% | Mean serum UA reduction (800 mg QD): −21% | Mean serum UA reduction (1000 mg QD): −28%
